In ChEMBL document CHEMBL3301361, “Experimental in vitro DMPK and physicochemical data on a set of publicly disclosed compounds”:
In brackets after ≈: the same amount, converted by molar mass.

How the values were obtained:
in vitro [1] = details: Dunkin Hartley, guinea pig, plasma
in vitro [2] = details: SD, HW or BN, rat, plasma
in vitro [3] = details: human, plasma
in vitro [4] = details: Beagle, dog, plasma
in vitro [5] = details: mouse, plasma
physchem [6] = assay: physchem
physchem [7] = assay: physchem; remark: listed apart in the source
in vitro [8] = details: human
physchem [9] = details: octan-1-ol/water
in vitro [10] = details: hepatocytes
physchem [11] = details: pH 7.4 buffer
in vitro [12] = details: human, hepatocytes
physchem [13] = assay: physchem; remark: listed apart in the source

Row | SMILES | fraction unbound at 5 h (in vitro [1]) | fraction unbound at 5 h (in vitro [2]) | fraction unbound at 5 h (in vitro [4]) | pKa (physchem [6]) | pKa (physchem [7]) | fraction unbound at 5 h (in vitro [3]; PPB) | logD (physchem [9]; pH 7.4, LogD7.4) | hepatocyte CLint (in vitro [10]) | also measured
1 | CCCN(c1cccnc1)P(=O)(c1ccccc1)c1ccccc1 | 0.309 | 0.151 | 0.176 | – | – | – | – | – | fraction unbound at 5 h (in vitro [3]): 0.0205; fraction unbound at 5 h (in vitro [5]): 0.124
2 | O=P(c1ccccc1)(c1ccccc1)N(Cc1ccccn1)c1cccnc1 | 0.299 | 0.145 | 0.208 | – | – | – | – | – | fraction unbound at 5 h (in vitro [3]): 0.0234; fraction unbound at 5 h (in vitro [5]): 0.17
3 | O=P(c1ccccc1)(c1ccccc1)N(Cc1ccccn1)Cc1ccccn1 | 0.569 | – | – | – | – | – | – | – | fraction unbound at 5 h (in vitro [3]): 0.0049; fraction unbound at 5 h (in vitro [5]): 0.0968
4 | O=C(NCC12CC3CC(CC(C3)C1)C2)c1cc(CN2CC3CNCC(C2)O3)ccc1Cl | – | – | – | 9 | 10 | 0.0467 | 1.55 | 9 µL/min/1e6 cells | microsomal CLint (in vitro [8]; microsomes): 15 µL/min/mg
5 | Cc1nc2ccc(Oc3ccc(F)cc3)cc2c(=O)n1C[C@H]1CCCN(C(C)C)C1 | – | – | – | 2.65 | – | – | 2.4 | – | –
6 | COc1ccc2c(C)cc(N[C@H]3CC[C@H](NCc4cn(C)c5cccnc45)C3)nc2c1 | 0.0854 | – | – | – | – | 0.0262 | – | – | fraction unbound at 5 h (in vitro [5]): 0.0647
7 | COc1ccnc(CSc2nc3ccccc3[nH]2)c1 | – | – | – | 3 | 5.3 | – | 2.89 | > 150 µL/min/1e6 cells | microsomal CLint (in vitro [8]; liver microsomes): 86 µL/min/mg
8 | CCN(Cc1cc(C(F)(F)F)ccc1-c1cc(CC(=O)O)ccc1OC)C(=O)NCc1ccccc1 [AM-211] | 0.0256 | 0.0191 | 0.0039 | – | – | 0.0171 | – | 18.2 µL/min/1e6 cells | microsomal CLint (in vitro [8]; microsomes): 67.6 µL/min/mg; solubility thermodynamic (physchem [11]): 1380 µM (≈ 691 µg/mL)
9 | CN(C)N(C)C(=O)[C@@]1(Cc2ccccc2)CCCN(C(=O)[C@@H](Cc2c[nH]c3ccccc23)NC(=O)C(C)(C)N)C1 [ANAMORELIN] | 0.22 | 0.16 | 0.0633 | – | – | – | 2.1 | – | hepatocyte CLint (in vitro [12]): 8.91 µL/min/1e6 cells
10 | COc1ccc(CCN2CCC(Nc3nc4ccccc4n3Cc3ccc(F)cc3)CC2)cc1 [ASTEMIZOLE] | – | – | – | 6.33 | 9.62 | 0.0262 | – | – | microsomal CLint (in vitro [8]; liver microsomes): 66 µL/min/mg; solubility thermodynamic (physchem [11]): 5.6 µM (≈ 2.57 µg/mL)
11 | O=C1CC2(CCCC2)CC(=O)N1CCCCN1CCN(c2ncccn2)CC1 [BUSPIRONE] | – | – | – | 5.48 | 7.61 | – | – | – | microsomal CLint (in vitro [8]; liver microsomes): 116 µL/min/mg; hepatocyte CLint (in vitro [12]): 38.9 µL/min/1e6 cells; solubility thermodynamic (physchem [11]): 1450 µM (≈ 557 µg/mL)
12 | NC(=O)N1c2ccccc2C=Cc2ccccc21 [CARBAMAZEPINE] | 0.24 | 0.266 | 0.271 | – | – | 0.294 | 1.65 | 19.9 µL/min/1e6 cells | microsomal CLint (in vitro [8]; microsomes): 7 µL/min/mg; hepatocyte CLint (in vitro [12]): 5.25 µL/min/1e6 cells; solubility thermodynamic (physchem [11]): 776 µM (≈ 183 µg/mL)
13 | CN(C)CCn1nnnc1SCC1=C(C(=O)O)N2C(=O)[C@@H](NC(=O)Cc3csc(N)n3)[C@H]2SC1 [CEFOTIAM] | – | – | – | 4.61 | 8.18 | – | – | – | pKa (physchem [13]): 2.41
14 | CN(C)CCC(c1ccc(Cl)cc1)c1ccccn1 (configuration not stated) [CHLORPHENIRAMINE] | – | – | – | 5.86 | – | – | – | – | –
15 | COc1cc2ncnc(Nc3ccc(F)c(Cl)c3)c2cc1NC(=O)/C=C/CN1CCCCC1 [DACOMITINIB ANHYDROUS] | – | – | – | 5.2 | 9.36 | 0.0179 | 4.1 | 9.77 µL/min/1e6 cells | hepatocyte CLint (in vitro [12]): < 3 µL/min/1e6 cells; solubility thermodynamic (physchem [11]): 6.8 µM (≈ 3.2 µg/mL)
16 | Clc1ccc2c(c1)CCc1cccnc1C2=C1CCNCC1 [DESLORATADINE] | – | 0.145 | – | 4.57 | 10 | – | – | 26.9 µL/min/1e6 cells | logD (physchem [9]; pH 7.4): 1.48; fraction unbound at 5 h (in vitro [5]): 0.183
17 | OC(Cn1cncn1)(Cn1cncn1)c1ccc(F)cc1F [FLUCONAZOLE] | – | – | – | 2.18 | 2.72 | – | – | – | fraction unbound at 5 h (in vitro [3]): 0.858
18 | C[C@H](CN(C(=O)c1ccc(C#N)cc1)c1ccccn1)N1CCN(c2cccc3c2OCCO3)CC1 [LECOZOTAN] | 0.139 | 0.179 | – | – | – | 0.009 | – | – | fraction unbound at 5 h (in vitro [5]): 0.139
19 | Cc1nnc(C(C)C)n1[C@H]1C[C@H]2CC[C@@H](C1)N2CC[C@H](NC(=O)C1CCC(F)(F)CC1)c1ccccc1 [MARAVIROC] | – | – | – | 2.4 | 9.66 | – | – | – | –
20 | CC(C)N1CCN(Cc2cnc(-c3cc(-c4cccc5[nH]ccc45)cc4[nH]ncc34)o2)CC1 [NEMIRALISIB] | – | 0.0358 | – | 2.4 | 8.26 | 0.03 | 3.49 | – | –
21 | OCc1cc(C(O)CNCCCCCCOCCCCc2ccccc2)ccc1O (configuration not stated) [SALMETEROL] | 0.0477 | 0.0736 | 0.0179 | – | – | 0.0661 | – | 85 µL/min/1e6 cells | microsomal CLint (in vitro [8]; liver microsomes): 58 µL/min/mg
22 | COc1ccc(CCO[C@@H]2CCCC[C@H]2N2CC[C@@H](O)C2)cc1OC [VERNAKALANT] | 0.309 | 0.776 | 0.772 | – | – | 0.629 | – | – | hepatocyte CLint (in vitro [12]): 6.46 µL/min/1e6 cells
